# The source made the active and inactive calls. No cut-off for these calls is given here.
# Tests used:
# Escherichia coli [1] = experiment: Reduction in fimbriae production in Escherichia coli O157:H7 biofilm grown on nylon filter at 20 ug/ml after 24 hrs by scanning electron microscopy; type: functional, organism-based
# Escherichia coli [2] = experiment: Antibiofilm activity against Escherichia coli O157:H7 assessed as induction of qseB gene expression at 20 ug/ml after 5 hrs by qRT-PCR analysis; type: functional, organism-based
# Escherichia coli [3] = experiment: Antibiofilm activity against Escherichia coli O157:H7 assessed as induction of motB gene expression at 20 ug/ml after 5 hrs by qRT-PCR analysis; type: functional, organism-based
# Escherichia coli [4] = experiment: Antibiofilm activity against Escherichia coli O157:H7 assessed as induction of flhD gene expression at 20 ug/ml after 5 hrs by qRT-PCR analysis; type: functional, organism-based
# Escherichia coli [5] = experiment: Antibiofilm activity against Escherichia coli O157:H7 assessed as induction of fliA gene expression at 20 ug/ml after 5 hrs by qRT-PCR analysis; type: functional, organism-based
# Escherichia coli [6] = experiment: Antibiofilm activity against Escherichia coli O157:H7 assessed as effect on rrsG expression at 20 ug/ml after 5 hrs by qRT-PCR analysis; type: functional, organism-based
# Escherichia coli [7] = experiment: Antibiofilm activity against Escherichia coli O157:H7 assessed as repression of csgG expression at 20 ug/ml after 5 hrs by qRT-PCR analysis; type: functional, organism-based
# Escherichia coli [8] = experiment: Antibiofilm activity against Escherichia coli O157:H7 assessed as repression of csgF expression at 20 ug/ml after 5 hrs by qRT-PCR analysis; type: functional, organism-based
# Escherichia coli [9] = experiment: Antibiofilm activity against Escherichia coli O157:H7 assessed as repression of csgD expression at 20 ug/ml after 5 hrs by qRT-PCR analysis; type: functional, organism-based
# Escherichia coli [10] = experiment: Antibiofilm activity against Escherichia coli O157:H7 assessed as repression of csgC expression at 20 ug/ml after 5 hrs by qRT-PCR analysis; type: functional, organism-based
# Escherichia coli [11] = experiment: Antibiofilm activity against Escherichia coli O157:H7 assessed as repression of csgB expression at 20 ug/ml after 5 hrs by qRT-PCR analysis; type: functional, organism-based
# Escherichia coli [12] = experiment: Antibiofilm activity against Escherichia coli O157:H7 assessed as repression of csgA expression at 20 ug/ml after 5 hrs by qRT-PCR analysis; type: functional, organism-based
# Escherichia coli [13] = experiment: Antimicrobial activity against Escherichia coli O157:H7 by spectrophotometry; type: organism-based; details: in vivo
# Escherichia coli [14] = experiment: Antibiofilm activity against Escherichia coli O157:H7 after 24 hrs by spectrophotometry; type: functional, organism-based
# Pseudomonas aeruginosa [15] = experiment: Antibiofilm activity against Pseudomonas aeruginosa PA14 after 24 hrs by spectrophotometry; type: functional, organism-based
# Pseudomonas aeruginosa [16] = experiment: Antibiofilm activity against Pseudomonas aeruginosa PA14 after 24 hrs by GFP-based confocal laser microscopy; type: functional, organism-based
# Escherichia coli [17] = experiment: Antibiofilm activity against Escherichia coli O157:H7 after 24 hrs by GFP-based confocal laser microscopy; type: functional, organism-based
# Pseudomonas aeruginosa [18] = experiment: Antibiofilm activity against Pseudomonas aeruginosa PA14 assessed as growth inhibition at 50 ug/ml by spectrophotometry; type: functional, organism-based
# Escherichia coli [19] = experiment: Antimicrobial activity against Escherichia coli O157:H7 assessed as growth inhibition up to 50 ug/ml by spectrophotometry; type: organism-based; details: in vivo
# Escherichia coli [20] = experiment: Antibiofilm activity against Escherichia coli O157:H7 at 5 ug/ml after 24 hrs by spectrophotometry; type: functional; details: O157:H7, 24 h
SMILES,Activity (Escherichia coli [1]),Activity (Escherichia coli [2]),Activity (Escherichia coli [3]),Activity (Escherichia coli [4]),Activity (Escherichia coli [5]),Activity (Escherichia coli [6]),Activity (Escherichia coli [7]),Activity (Escherichia coli [8]),Activity (Escherichia coli [9]),Activity (Escherichia coli [10]),Activity (Escherichia coli [11]),Activity (Escherichia coli [12]),growth inhibition (GI) (Escherichia coli [13]),inhibition (Escherichia coli [14]),inhibition (Pseudomonas aeruginosa [15]),inhibition (Pseudomonas aeruginosa [16]),inhibition (Escherichia coli [17]),inhibition (Pseudomonas aeruginosa [18]),Activity (Escherichia coli [19]),inhibition at 5 µg/mL (Escherichia coli [20]) [%]
Oc1ccc(/C=C/c2cc(O)cc3c2[C@@H](c2cc(O)cc(O)c2)[C@H](c2ccc(O)cc2)O3)cc1 [EPSILON-VINIFERIN],Active,inactive,inactive,inactive,inactive,inactive,Active,Active,Active,Active,Active,Active,Dose-dependent effect,Dose-dependent effect,–,–,–,–,–,–
Oc1ccc([C@@H]2c3c(O)cc(O)cc3[C@@H]3c4c(cc(O)c5c4[C@@H]2[C@@H](c2ccc(O)cc2)[C@@H]5c2cc(O)cc(O)c2)O[C@@H]3c2ccc(O)cc2)cc1 (relative stereo),–,inactive,inactive,inactive,inactive,–,–,–,–,–,–,–,–,Dose-dependent effect,Dose-dependent effect,Active,Dose-dependent effect,–,–,–
Oc1ccc([C@H]2Oc3cc(O)cc(/C=C/c4ccc5c(c4)[C@@H](c4cc(O)cc6c4[C@H](c4cc(O)cc(O)c4)[C@@H](c4ccc(O)cc4)O6)[C@H](c4ccc(O)cc4)O5)c3[C@@H]2c2cc(O)cc(O)c2)cc1 [VITISIN B],Active,Active,Active,Active,Active,inactive,Active,Active,Active,Active,Active,Active,–,Dose-dependent effect,Dose-dependent effect,Active,Dose-dependent effect,inactive,Non-toxic,> 90
Oc1ccc([C@H]2c3c(O)cc(O)cc3[C@@H]3c4c(cc(O)c5c4[C@@H]2[C@@H](c2ccc(O)cc2)[C@@H]5c2cc(O)cc(O)c2)O[C@@H]3c2ccc(O)cc2)cc1 (relative stereo),–,inactive,inactive,inactive,inactive,inactive,Active,Active,Active,Active,Active,Active,–,Dose-dependent effect,Dose-dependent effect,Active,Dose-dependent effect,–,–,–
Oc1ccc(/C=C/c2cc(O)cc(O)c2)cc1 [RESVERATROL],Active,–,–,–,–,inactive,Active,Active,Active,Active,Active,Active,Dose-dependent effect,Dose-dependent effect,Active,Active,–,–,–,–
Oc1ccc([C@H]2c3c(O)cc(O)cc3[C@H]3c4c(cc(O)cc4[C@@H]2c2cc(/C=C/c4cc(O)cc5c4[C@H](c4cc(O)cc(O)c4)[C@@H](c4ccc(O)cc4)O5)ccc2O)O[C@@H]3c2ccc(O)cc2)cc1 [VITISIN A],–,inactive,inactive,inactive,inactive,–,–,–,–,–,–,–,–,inactive,Dose-dependent effect,Active,–,–,Non-toxic,–
